Reference: patent US20040122209A1, “Products for regulating the degradation of collagen and methods for identifying same” (Shriners Hospital For Children, priority 2002, published 2004)

System: normal human adult articular cartilage explants
Assay: Proteoglycan release and content (DMMB dye assay) in human explant culture
Format: cell-based
Experimental: Cumulative proteoglycan (mainly aggrecan) released into medium was calculated by summation of proteoglycan contents in medium at each medium change of every four days. Cartilage explants were maintained for up to 16 days cultured with or without CB12-II at 10 μM. Sulfated glycosaminoglycan in medium was assayed by dimethylmethylene blue (DMMB) method. Data are expressed as μg GAG release per wet weight of cartilage.
The cartilages were prepared as previously described (Dahlberg, L. et al. (2000) supra. In brief, the cartilage samples were washed three times with basal culture medium containing Dulbecco's modified Eagle's medium (DMEM; Gibco BRL, Life Technologies, Grand Island, N.Y.) with 20 mM HEAPS buffer (pH 7.4) (Gibco BRL), 45 mM NaHCO3, 100 units/ml penicillin, 100 μg/ml streptomycin and 150 μg/ml gentamycin sulphate (Medium A). Full-depth cartilage slices from a single area, around 20 mm×20 mm were cut vertical to the articular surface and then into cubes of approximately 2 mm×2 mm (5-7 cubes were randomly obtained and wet weights about 50-70 mg/well determined).
The cartilage was assigned to 48 well plate (ca 40 mg/well) and kept in Medium A supplemented with 50 μg/ml ascorbic acid, 0.1 mg/bovine serum albumin, 50 μg/ml insulin, 5.0 μg/ml and 5.0 μg/ml sodium DMEM alone at 37° C. in 95% air/5% CO2. The cartilage was precultured for 2 days and medium was changed at day 0. […]
In order to show the specificity of the peptide fragments of one embodiment on degradation of type II collagen as compared with proteoglycan, primarily aggrecan, sulphated glycosaminoglycan (GAG) content was determined in both the α-chymotrypsin and proteinase K digests for total proteoglycan (predominantly aggrecan) content in cell pellets, cartilage explants and also in conditioned media. […]
In order to examine any effects of SP on proteoglycan catabolism in normal human articular cartilage, cumulative proteoglycan (mainly aggrecan) release into medium and proteoglycan content in cartilage were determined by DMMB (1,9-dimethylmethyleneblue) dye assay.

## ERGPPGPQGARGFPGTPGLPGVK [CB12-II]
10 μM, up to 16 days
  cumulative proteoglycan release, SP-treated versus control specimens: no significant difference
  proteoglycan release into medium: did not induce proteoglycan release
Data not shown
  proteoglycan content in cartilage explants: nor did it decrease proteoglycan content
